Literature values in paper PMC7751758, “Repurposing Sigma-1 Receptor Ligands for COVID-19 Therapy?” (Frontiers in Pharmacology, 2020).

Tested on: SARS-CoV
Details: mouse, in vivo

Structure (SMILES) | clinical disease | virus replication in lungs
CCN(CC)CCCC(C)Nc1ccnc2cc(Cl)ccc12 (stereo not shown) [Chloroquine] | did protect mice from clinical disease | did not inhibit virus replication in lungs
CN(C)CCCN1c2ccccc2Sc2ccc(Cl)cc21 [Chlorpromazine] | did protect mice from clinical disease | did not inhibit virus replication in lungs
